# According to publication PMC5562778 (Archives of Toxicology, 2017):
# How the values were obtained:
# [1] = design: method as in Van Den Berg et al. [2011]; settings: lower confidence bound of the Benchmark Dose giving 10% extra cancer incidence; ref Van Den Berg et al. [2011]; cited from earlier work
# CYP 1A2 [2] = target: T1, CYP 1A2 (Homo sapiens, UniProt P05177); settings: cited from earlier work
# T1 sequence (P05177 1-516): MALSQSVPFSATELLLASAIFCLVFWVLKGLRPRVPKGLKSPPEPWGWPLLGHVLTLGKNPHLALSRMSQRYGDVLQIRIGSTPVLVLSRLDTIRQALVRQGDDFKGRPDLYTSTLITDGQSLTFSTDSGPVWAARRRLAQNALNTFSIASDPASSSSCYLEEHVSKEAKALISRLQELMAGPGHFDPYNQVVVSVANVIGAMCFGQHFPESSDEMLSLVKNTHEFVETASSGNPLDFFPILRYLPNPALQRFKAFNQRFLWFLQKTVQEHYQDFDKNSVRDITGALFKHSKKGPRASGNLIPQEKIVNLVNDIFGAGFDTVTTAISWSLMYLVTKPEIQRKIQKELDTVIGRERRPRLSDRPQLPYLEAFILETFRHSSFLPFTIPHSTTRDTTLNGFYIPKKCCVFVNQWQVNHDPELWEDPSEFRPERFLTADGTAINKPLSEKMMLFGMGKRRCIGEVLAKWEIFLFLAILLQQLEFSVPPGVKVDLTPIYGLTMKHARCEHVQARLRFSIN
# [3] = design: method as in Bartoli et al. [1996]; settings: peak at 0.5–2 h; clearance within 7 h of administration; marker for CYP1A2 activity; ref Bartoli et al. [1996]; cited from earlier work
# [4] = PBK prediction; route not stated; ref Barter et al. [2013]; cited from earlier work
# CYP 1A2 [5] = target: T1, CYP 1A2; settings: pH 7.4
# Procedure: The quality of the Chinese and Caucasian liver microsomes was checked by measuring the activity of CYP1A2 and CYP2A6 by the method of Yang et al. ([2012]). The quality of Chinese and Caucasian liver S9 samples was checked by measuring the SULT activity based on the method provided by Wang et al. ([2006]). The details of the methods for the microsomal and S9 in vitro incubations and UPLC analysis for assessing the metabolic capabilities of CYP and SULT enzymes can be found in the supporting materials 1.
# The quality of the Chinese and Caucasian liver microsomes was checked by measuring the activity of CYP 1A2 and CYP 2A6 by the method of Yang et al. (Yang et al. 2012). CYP 1A2 and CYP 2A6 are predominant enzymes for formation of 1'-hydroxyestragole (Jeurissen et al. 2007). The activity of CYP 1A2 was measured with the substrate phenacetin, and the activity of CYP 2A6 was checked using the substrate coumarin. […] The samples were centrifuged for 5 min at 16, 000g to precipitate microsomal proteins and analyzed by UPLC.
# Before UPLC analysis, all samples were centrifuged for 5 min at 16, 000g to precipitate microsomal or cytosolic proteins. Supernatant of each sample was analyzed on UPLC using a BEH C18 (1.7 μm 2.1×50 mm) column with a guard column and a diode array detector (Acquity, Waters).
# [6] = route not stated; ref Barter et al. [2013]; cited from earlier work
"Catalytic efficiency of CYP 1A2 mediated conversion, lower in Chinese than Caucasian liver microsomes (CYP 1A2 [5]; microsomes) [fold]","Catalytic efficiency (Vmax/Km), CYP 1A2 mediated O-deethylation (CYP 1A2 [5])",SMILES,BMDL10 [1],"Catalytic efficiency of CYP 1A2, lower for Chinese liver microsomes (CYP 1A2 [2]) [fold]",Catalytic efficiency for CYP 1A2 (CYP 1A2 [2]; microsomes),"Peak plasma concentrations and apparent oral clearance, Chinese versus Caucasian subjects [3]","Predicted clearance, lower in Chinese than in Caucasian subjects [4] [%]","Experimentally observed clearance, lower in Chinese individuals than in Caucasian volunteers [6] [%]"
,,"C=CCc1ccc(OC)cc1 [Estragole, 1-allyl-4-methoxybenzene]",3.3–6.5 mg/kg bw/day,,,,,
3,3.1 µl/min/(mg microsomal protein),CCOc1ccc(NC(C)=O)cc1 [phenacetin],,2,0.6-51.4 µl/min/(mg microsomal protein),not differ,36,28
